Counter-ions that a name gives are not always drawn.
Legend:
[1] = target: T1, recombinant human 5-HT6 receptor (Homo sapiens, UniProt P50406); test: Radioligand binding studies: competition for [3H]LSD binding in HEK293 cell membranes; details: [3H]LSD (5 nM) displacement, membranes of HEK293 cells stably expressing the receptor, 60 min at 37° C., pH 7.4
T1 construct: expressed in transfected cells; membranes used
Procedure: Radioligand Binding Studies
This example illustrates in vitro radioligand binding studies of compound of formula I.
The binding activity of compounds of this invention in vitro was determined as follows. Duplicate determinations of ligand affinity are made by competing for binding of [^3H]LSD in cell membranes derived from HEK293 cells stably expressing recombinant human 5-HT6 receptor. This cell line was prepared by the method described by Monsma et al., Molecular Pharmacology, Vol. 43 pp. 320-327 (1993).
All determinations were made in assay buffer containing 50 mM Tris-HCl, 10 mM MgSO4, 0.5 mM EDTA, 1 mM ascorbic acid, pH 7.4 at 37° C., in a 250 microliter reaction volume. Assay tubes containing [^3H] LSD (5 nM), competing ligand, and membrane were incubated in a shaking water bath for 60 min. at 37° C., filtered onto Packard GF-B plates (pre-soaked with 0.3% PEI) using a Packard 96 well cell harvester and washed 3 times in ice cold 50 mM Tris-HCl. Bound [^3H] LSD was determined as radioactive counts per minute using Packard TopCount.
Displacement of [3H]LSD from the binding sites was quantified by fitting concentration-binding data to a 4-parameter logistic equation:
[formula] where Hill is the Hill slope, [ligand] is the concentration of competing radioligand and IC50 is the concentration of radioligand producing half-maximal specific binding of radioligand. […]

T1 sequence (P50406 whole entry): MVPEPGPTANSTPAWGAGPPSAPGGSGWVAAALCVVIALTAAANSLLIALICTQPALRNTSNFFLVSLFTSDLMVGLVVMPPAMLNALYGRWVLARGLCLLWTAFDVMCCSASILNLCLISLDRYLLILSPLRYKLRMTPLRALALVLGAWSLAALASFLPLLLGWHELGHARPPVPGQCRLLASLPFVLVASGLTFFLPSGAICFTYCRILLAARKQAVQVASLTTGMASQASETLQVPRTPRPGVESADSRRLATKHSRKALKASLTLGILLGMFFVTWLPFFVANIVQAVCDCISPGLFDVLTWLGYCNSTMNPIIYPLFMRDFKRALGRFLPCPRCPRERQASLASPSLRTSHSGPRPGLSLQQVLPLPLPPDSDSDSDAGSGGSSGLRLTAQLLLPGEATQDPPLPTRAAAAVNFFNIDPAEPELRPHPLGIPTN

Row | Structure (SMILES) | melting point | Ki [1] [nM]
1 | Cc1cnc2c(N3CCNCC3)cccc2c1Oc1ccccc1 (as salt: TFA) | 143 to 144 °C | –
2 | COc1cccc(Oc2c(C)cnc3c(N4CCNCC4)cccc23)c1 (as salt: hydrochloride) [Compound 2, 4-(3-Methoxy-phenoxy)-3-methyl-8-piperazin-1-yl-quinoline] | 254 to 255 °C (dec.) | –
3 | COc1cc(N2CCNCC2)c2ncc(C)c(Oc3ccccc3)c2c1 [Compound 10, 6-Methoxy-3-methyl-4-phenoxy-8-piperazin-1-yl-quinoline] | – | ~1
